These results are taken from article PMC3016232 (Cancer Chemotherapy and Pharmacology, 2010).

Series [1] can be described thus: clinical. The format is in vivo, human.
Series [2] is classed as in vivo, human.
Series [3] deals with UGT1A. Put plainly: Formation of SN-38G from SN-38 in pooled human liver microsomes. The format is in vitro ADME. The conditions noted are these: SN-38 5 μM, 30 min, microsomal protein 0.8 mg/mL. (In general: Microsomes from liver hold many membrane-bound enzymes, among them those of drug oxidation.)
The test system of series [4] is UGT1A1 mRNA. Description: UGT1A1 mRNA levels in HCT116 cells by quantitative RT-PCR. Conditions: HCT 116 cells; methimazole 25–100 μM; up to ~48 h. The format is cell-based, human.
Setting [5] is: courses with methimazole, plasma.
[6] abbreviates: courses without methimazole, plasma.
Setting [7] is: mean of the courses with or without methimazole, plasma.

For orientation: AUC means the area under the concentration-time curve, a measure of exposure. Higher therefore signals high exposure.

On to `CCc1c2c(nc3ccc(O[C@@H]4O[C@H](C(=O)O)[C@@H](O)[C@H](O)[C@H]4O)cc13)-c1cc3c(c(=O)n1C2)COC(=O)[C@]3(O)CC` [SN-38G], for which the “mean SN-38G AUC” value in series [1] (setting [5]) was 1,255 ng × h/mL; in series [1] (setting [6]), 753 ng·h/mL.
With `CCc1c2c(nc3ccc(OC(=O)N4CCC(NCCCCC(=O)O)CC4)cc13)-c1cc3c(c(=O)n1C2)COC(=O)C3(O)CC` (centres unmarked) [APC, 7-Ethyl-10-[4-N-(5-aminopentanoic acid)-1-piperidino]-carbonyloxy-camptothecin], the “mean exposure (AUC) to APC” value in series [1] (setting [7]) is 3,018 ng × h/mL.
Consider `CCc1c2c(nc3ccc(OC(=O)N4CCC(N5CCCCC5)CC4)cc13)-c1cc3c(c(=O)n1C2)COC(=O)[C@]3(O)CC` [irinotecan], for which the exposure (AUC) in series [1] (male, human, in vivo) is 16100 ng·h/mL. Also, in series [2] (all courses), the Irinotecan-related toxicity entry is given as “mild”. Further, the “mean absolute neutrophil count nadir” value in series [2] (mean of all courses) was 4.2e+09 L⁻¹.
As for `CC(=O)N1CCN(c2ccc(OCC3COC(Cn4ccnc4)(c4ccc(Cl)cc4Cl)O3)cc2)CC1` (centres unmarked) [ketoconazole], the “reduction of SN-38G formation” value in series [3] (ketoconazole 25 μM) stood at 43%.
Turning to `Cn1cc[nH]c1=S` [methimazole], in series [4], the “induction of UGT1A1 mRNA levels compared to untreated control cells” value is reported as 15–18 fold. In addition, the “effect on SN-38G formation” value in series [3] (methimazole 37.5 μM) is listed as “did not decrease”.
As for `CCc1c2c(nc3ccc(OC(=O)N4CCC(N)CC4)cc13)-c1cc3c(c(=O)n1C2)COC(=O)[C@]3(O)CC` [NPC, 7-Ethyl-10-[4-amino-1-piperidino]-carbonyloxycamptothecin], in series [1] (setting [7]), the “mean exposure (AUC) to NPC” value was 32.3 ng·h/mL.
As for `CCc1c2c(nc3ccc(O)cc13)-c1cc3c(c(=O)n1C2)COC(=O)[C@]3(O)CC` [SN-38, 7-Ethyl-10-hydroxy camptothecin], the figures for the “mean relative extent of glucuronidation (ratio of SN-38G over SN-38)” value in series [1] (courses with methimazole) and in series [1] (courses without methimazole) were 10.1 and 6.85, respectively. Besides, the “mean SN-38 AUC” value in series [1] (setting [5]) was found to be 125 ng·h/mL; in series [1] (setting [6]) it was 110 ng·h/mL.
